Reference: PubChem BioAssay (NCI)
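Interpolation was linear, between the two tested concentrations surrounding the appropriate level; five concentrations were tested over 48 hours in 96-well plates. GI50: concentration for 50% inhibition of growth. Definition used: TGI = concentration required for complete inhibition of growth.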

What was measured:
Assay in all cases: NCI tumour cell line growth inhibition, 48 h
[1] = tested on: OVCAR-8 ovarian
[2] = tested on: IGROV1 ovarian
[3] = tested on: RXF 393 renal
[4] = tested on: TK-10 renal
[5] = tested on: CCRF-CEM leukemia
[6] = tested on: SNB-75 CNS
[7] = tested on: CAKI-1 renal
[8] = tested on: NCI-H226 lung
[9] = tested on: HCT-116 colon
[10] = tested on: A549 NSCLC
[11] = tested on: MDA-MB-435
[12] = tested on: ACHN renal
[13] = tested on: HOP-92 NSCLC
[14] = tested on: SR leukemia
[15] = tested on: T-47D breast
[16] = tested on: HCC-2998 colon
[17] = tested on: NCI-H23 lung
[18] = tested on: COLO 205 colon
[19] = tested on: SK-MEL-5 melanoma
[20] = tested on: SNB-19 CNS
[21] = tested on: SF-539 CNS
[22] = tested on: MALME-3M melanoma
[23] = tested on: PC-3 prostate
[24] = tested on: OVCAR-4 ovarian
[25] = tested on: MDA-MB-231 breast
[26] = tested on: HL-60(TB) leukemia
[27] = tested on: HCT-15 colon
[28] = tested on: SF-295 CNS
[29] = tested on: BT-549 breast
[30] = tested on: UACC-62 melanoma
[31] = tested on: DU-145 prostate
[32] = tested on: K-562 leukemia
[33] = tested on: MCF7 breast
[34] = tested on: EKVX NSCLC
[35] = tested on: 786-0 renal
[36] = tested on: SF-268 CNS
[37] = tested on: OVCAR-3 ovarian
[38] = tested on: SK-OV-3 ovarian
[39] = tested on: UACC-257 melanoma
[40] = tested on: A498 renal
[41] = tested on: M14 melanoma
[42] = tested on: NCI/ADR-RES ovarian
[43] = tested on: SW-620 colon
[44] = tested on: UO-31 renal
[45] = tested on: LOX IMVI melanoma
[46] = tested on: SK-MEL-2 melanoma
[47] = tested on: RPMI-8226 leukemia
[48] = tested on: NCI-H460 lung
[49] = tested on: U251 CNS
[50] = tested on: SN12C renal
[51] = tested on: OVCAR-5 ovarian
[52] = tested on: HT29 colon
[53] = tested on: MOLT-4 leukemia
[54] = tested on: HS 578T breast
[55] = tested on: SK-MEL-28 melanoma
[56] = tested on: HOP-62 NSCLC
[57] = tested on: KM12 colon
[58] = tested on: NCI-H522 lung

Question: With CC(C)(C)c1cc(O)c(O)c(C(C)(C)C)c1 as the compound, how does the GI50 [1] read?
Answer: The GI50 was 3.48 µM.

Question: What about the TGI [1] of the same compound?
Answer: The TGI was 16.4 µM.

Question: And the GI50 [2]?
Answer: The GI50 was 2560 nM.

Question: And the TGI [2]?
Answer: Its TGI is 5.27 µM.

Question: What about the GI50 [3] of the same compound?
Answer: The GI50 was 4.4 µM.

Question: What about the TGI [3] of the same compound?
Answer: The TGI was 13.5 µM.

Question: And the GI50 [4]?
Answer: The GI50 was 3.08 µM.

Question: What about the TGI [4] of the same compound?
Answer: Its TGI is 7.4 µM.

Question: And the GI50 [5]?
Answer: Its GI50 is 2330 nM.

Question: What about the TGI [5] of the same compound?
Answer: Its TGI is 7.49 µM.

Question: And the GI50 [6]?
Answer: Its GI50 is 4.86 µM.

Question: And the TGI [6]?
Answer: The TGI was 19 µM.

Question: What about the GI50 [7] of the same compound?
Answer: The GI50 was 2790 nM.

Question: What about the TGI [7] of the same compound?
Answer: The TGI was 8.63 µM.

Question: What about the GI50 [8] of the same compound?
Answer: Its GI50 is 6.35 µM.

Question: What about the TGI [8] of the same compound?
Answer: Its TGI is 22.8 µM.

Question: What about the GI50 [9] of the same compound?
Answer: Its GI50 is 1830 nM.

Question: What about the TGI [9] of the same compound?
Answer: The TGI was 3.41 µM.

Question: What about the GI50 [10] of the same compound?
Answer: The GI50 was 3.49 µM.

Question: And the TGI [10]?
Answer: The TGI was 12.2 µM.

Question: What about the GI50 [11] of the same compound?
Answer: Its GI50 is 3.3 µM.

Question: And the TGI [11]?
Answer: The TGI was 14.1 µM.

Question: What about the GI50 [12] of the same compound?
Answer: The GI50 was 2150 nM.

Question: What about the TGI [12] of the same compound?
Answer: Its TGI is 4.13 µM.

Question: And the GI50 [13]?
Answer: Its GI50 is 1360 nM.

Question: And the TGI [13]?
Answer: Its TGI is 4.6 µM.

Question: What about the GI50 [14] of the same compound?
Answer: Its GI50 is 2380 nM.

Question: And the TGI [14]?
Answer: Its TGI is 6.64 µM.

Question: What about the GI50 [15] of the same compound?
Answer: The GI50 was 2360 nM.

Question: And the TGI [15]?
Answer: Its TGI is 5.02 µM.

Question: And the GI50 [16]?
Answer: Its GI50 is 4.44 µM.

Question: What about the TGI [16] of the same compound?
Answer: The TGI was 16.6 µM.

Question: What about the GI50 [17] of the same compound?
Answer: The GI50 was 3.64 µM.

Question: And the TGI [17]?
Answer: Its TGI is 14.2 µM.

Question: And the GI50 [18]?
Answer: The GI50 was 3.61 µM.

Question: And the TGI [18]?
Answer: Its TGI is 12.2 µM.

Question: What about the GI50 [19] of the same compound?
Answer: The GI50 was 4.68 µM.

Question: And the TGI [19]?
Answer: Its TGI is 15.8 µM.

Question: What about the GI50 [20] of the same compound?
Answer: The GI50 was 7.3 µM.

Question: And the TGI [20]?
Answer: Its TGI is 20.3 µM.

Question: What about the GI50 [21] of the same compound?
Answer: The GI50 was 3.47 µM.

Question: And the TGI [21]?
Answer: Its TGI is 11 µM.

Question: And the GI50 [22]?
Answer: The GI50 was 3.13 µM.

Question: What about the TGI [22] of the same compound?
Answer: Its TGI is 9.71 µM.

Question: What about the GI50 [23] of the same compound?
Answer: The GI50 was 3.55 µM.

Question: And the TGI [23]?
Answer: Its TGI is 15.9 µM.

Question: And the GI50 [24]?
Answer: The GI50 was 2310 nM.

Question: What about the TGI [24] of the same compound?
Answer: The TGI was 5.84 µM.

Question: What about the GI50 [25] of the same compound?
Answer: The GI50 was 8.55 µM.

Question: What about the TGI [25] of the same compound?
Answer: Its TGI is 23.2 µM.

Question: And the GI50 [26]?
Answer: Its GI50 is 2690 nM.

Question: What about the TGI [26] of the same compound?
Answer: Its TGI is 6.8 µM.

Question: And the GI50 [27]?
Answer: The GI50 was 3.38 µM.

Question: And the TGI [27]?
Answer: Its TGI is 11.2 µM.

Question: What about the GI50 [28] of the same compound?
Answer: Its GI50 is 3.53 µM.

Question: And the TGI [28]?
Answer: The TGI was 14.4 µM.

Question: What about the GI50 [29] of the same compound?
Answer: The GI50 was 8.71 µM.

Question: And the TGI [29]?
Answer: The TGI was 21 µM.

Question: What about the GI50 [30] of the same compound?
Answer: The GI50 was 2540 nM.

Question: And the TGI [30]?
Answer: The TGI was 7.78 µM.

Question: What about the GI50 [31] of the same compound?
Answer: Its GI50 is 4.6 µM.

Question: What about the TGI [31] of the same compound?
Answer: The TGI was 15.8 µM.

Question: What about the GI50 [32] of the same compound?
Answer: The GI50 was 2470 nM.

Question: And the TGI [32]?
Answer: Its TGI is 7.44 µM.

Question: What about the GI50 [33] of the same compound?
Answer: The GI50 was 3.45 µM.

Question: What about the TGI [33] of the same compound?
Answer: The TGI was 12.8 µM.

Question: And the GI50 [34]?
Answer: Its GI50 is 3.76 µM.

Question: What about the TGI [34] of the same compound?
Answer: Its TGI is 17.5 µM.

Question: And the GI50 [35]?
Answer: Its GI50 is 4.6 µM.

Question: What about the TGI [35] of the same compound?
Answer: Its TGI is 16.2 µM.

Question: And the GI50 [36]?
Answer: Its GI50 is 4.77 µM.

Question: What about the TGI [36] of the same compound?
Answer: The TGI was 16.1 µM.

Question: What about the GI50 [37] of the same compound?
Answer: The GI50 was 1930 nM.

Question: And the TGI [37]?
Answer: Its TGI is 3.38 µM.

Question: And the GI50 [38]?
Answer: Its GI50 is 10.3 µM.

Question: What about the TGI [38] of the same compound?
Answer: Its TGI is 22.6 µM.

Question: And the GI50 [39]?
Answer: The GI50 was 2420 nM.

Question: What about the TGI [39] of the same compound?
Answer: Its TGI is 7.4 µM.

Question: And the GI50 [40]?
Answer: Its GI50 is 6.19 µM.

Question: And the TGI [40]?
Answer: Its TGI is 19.8 µM.

Question: What about the GI50 [41] of the same compound?
Answer: The GI50 was 3.91 µM.

Question: And the TGI [41]?
Answer: The TGI was 13.8 µM.

Question: What about the GI50 [42] of the same compound?
Answer: The GI50 was 3.54 µM.

Question: And the TGI [42]?
Answer: Its TGI is 17.9 µM.

Question: What about the GI50 [43] of the same compound?
Answer: Its GI50 is 1800 nM.

Question: What about the TGI [43] of the same compound?
Answer: The TGI was 3.23 µM.

Question: What about the GI50 [44] of the same compound?
Answer: The GI50 was 2150 nM.

Question: And the TGI [44]?
Answer: Its TGI is 4.98 µM.

Question: What about the GI50 [45] of the same compound?
Answer: The GI50 was 3.05 µM.

Question: What about the TGI [45] of the same compound?
Answer: The TGI was 12.9 µM.

Question: What about the GI50 [46] of the same compound?
Answer: Its GI50 is 3.74 µM.

Question: And the TGI [46]?
Answer: The TGI was 11.4 µM.

Question: What about the GI50 [47] of the same compound?
Answer: Its GI50 is 3.17 µM.

Question: And the TGI [47]?
Answer: The TGI was 7.69 µM.

Question: And the GI50 [48]?
Answer: Its GI50 is 3 µM.

Question: What about the TGI [48] of the same compound?
Answer: Its TGI is 10 µM.

Question: What about the GI50 [49] of the same compound?
Answer: Its GI50 is 4.35 µM.

Question: What about the TGI [49] of the same compound?
Answer: Its TGI is 16.1 µM.

Question: And the GI50 [50]?
Answer: Its GI50 is 4.82 µM.

Question: What about the TGI [50] of the same compound?
Answer: Its TGI is 21.3 µM.

Question: And the GI50 [51]?
Answer: Its GI50 is 11.1 µM.

Question: And the TGI [51]?
Answer: The TGI was 23.3 µM.

Question: What about the GI50 [52] of the same compound?
Answer: The GI50 was 2900 nM.

Question: What about the TGI [52] of the same compound?
Answer: Its TGI is 6.71 µM.

Question: And the GI50 [53]?
Answer: The GI50 was 3.03 µM.

Question: What about the TGI [53] of the same compound?
Answer: The TGI was 8.67 µM.

Question: And the GI50 [54]?
Answer: The GI50 was 3.9 µM.

Question: What about the TGI [54] of the same compound?
Answer: The TGI was 26.7 µM.

Question: What about the GI50 [55] of the same compound?
Answer: Its GI50 is 3000 nM.

Question: And the TGI [55]?
Answer: Its TGI is 10.7 µM.

Question: What about the GI50 [56] of the same compound?
Answer: Its GI50 is 8.96 µM.

Question: What about the TGI [56] of the same compound?
Answer: Its TGI is 29 µM.

Question: And the GI50 [57]?
Answer: Its GI50 is 5.57 µM.

Question: What about the TGI [57] of the same compound?
Answer: The TGI was 16.9 µM.

Question: What about the GI50 [58] of the same compound?
Answer: The GI50 was 1770 nM.

Question: And the TGI [58]?
Answer: Its TGI is 3.29 µM.
